Patent US10954268B2, “Method of treating melanocortin-4 receptor-associated disorders in heterozygous carriers” (RHYTHM PHARMACEUTICALS, INC., priority 2011, dated 2021)
Bridges are numbered along the chain shown (N, C = ends). [ ]: non-standard residue; d: D form.

Test system: Diet induced obesity (DIO) littermate C57B1/6J mice
Experiment: Treatment of obese MC4R+/− heterozygotic mice by Alzet pump infusion, body weight measured
Assay type: in vivo
Conditions: Alzet pump infusion 1200 nmol/kg/day for 8 days, FIG. 3
Experimental: Body weight was measured.
The weight change due to the exposure to the compound of SEQ ID NO: 140 in mice that are either wild type for the MC4R gene, or express only a single MC4R allele, or mice without any MC4R protein expression were compared.

Ac-Arg-c(Cys-D-Ala-His-D-Phe-Arg-Trp-Cys)-NH2 (Ac-RC[dA]H[dF]RWC-NH2; disulfide 2-8 (inferred)) [SEQ ID NO: 140]
weight loss over the treatment period (DIO homozygous MC4R knockout mice (−/−), no MC4R expression): did not show significant weight loss
body weight lost over the treatment period (DIO mice heterozygous for the MC4R gene (+/−)): about 1 gram
